{"source": "patent US20160095802A1", "about": "“COMBINATION OF PETROSELINIC ACID AND ZINC FOR ORAL ADMINISTRATION FOR HAIR AGING CONTROL” (NUTRICOS TECHNOLOGIES, priority 2013, published 2016)", "test_system": "Lipoxin A4 production in human mononuclear cells", "test": "Lipoxin A4 production in stimulated human mononuclear blood cells in vitro (LC-MS of supernatants)", "assay_type": "cell-based", "conditions": "coriander oil 0.25 mg/ml, zinc gluconate 0.005 mg/ml; 30 min pre-incubation, then 2 hours stimulation with phorbol myristate 0.05 μM + calcium ionophore 1 μM + DHA/EPA 1 μg/mL each; triplicates", "method": "Mononuclear blood cells are cultured under 5% CO2 and at 37° C. in a serum-free medium for macrophages (SFM Macrophage; Invitrogen 12065074) for 24 hours. After this step, the medium is replaced with the same fresh test medium also containing the active agents at the various doses for 30 minutes in the presence of the various products to be evaluated (coriander oil 0.25 mg/ml, zinc gluconate ([…]. The inflammatory response was then triggered in the presence of phorbol myristate (0.05 μM) and calcium ionophore (1 μM) and a lipid substrate mixture composed of docosahexaenoic acid (DHA—1 μg/mL) and eicosapentaenoic acid (EPA—1 μg/mL).\nThe supernatants were then collected after 2 hours of stimulation and frozen at −80° C. before preparation for analysis by mass spectrometry.\nExperimental triplicates (three wells) were prepared per experimental condition. Into each culture plate was placed a control corresponding to cells stimulated with the PMA/A23187 mixture and/or with addition of the equimolar mixture of fatty acids.\nThe thawed supernatants were concentrated by solid-phase extraction (SPE) and taken up in methanol before spectrometric analysis. The analytical method used consists in separating the various analytes by high-pressure liquid chromatography as a function of their retention time and in quantifying them by mass spectrometry. […]", "data": [{"substance": "Zinc gluconate", "values": [{"measurement": "Level of lipoxin A4 production (% modulation relative to the control)", "result": "−5", "unit": "%"}]}]}
